# Laboratory results taken from article doi:10.1101/2025.08.19.670962, “Structural basis for binding of RILPL1 to TMEM55B reveals a lysosomal platform for adaptor assembly through a conserved TBM motif” (bioRxiv, 2025).
# Entries after “also recorded” stand apart in the source; their conditions may differ.
# Test system: R151E variant of TMEM55B
# Assay: In vitro pulldown of TMEM55B R151E variant with His-tagged bait peptides (negative control)
# Type: binding
# Details: 10 μM bait, 10 μM prey, Ni2+-agarose, 20 mM Tris pH 8.0, 300 mM NaCl, 20 mM imidazole, SDS-PAGE, Coomassie, qualitative
# Description: (§1) Figure 5: In vitro pulldowns of TMEM55B with TBM peptides. (A) Domain organization of TMEM55B interactors depicting the sequence context of the TBM. Regions that are α-helical have been drawn as cylinders; α/βfolds are shown as rectangles; and unstructured segments are zigzag lines. (B) Cartoon depiction of the in vitro pulldown strategy using His-tagged peptides. […] As a control, the R151E variant of TMEM55B was used, which abolishes the interactions with RILPL1 (bottom panel). […] Protein/peptide concentrations were 10μM (see Methods) and visualization was enabled by Coomassie Brilliant Blue G250.
# Given that the TBMs reside in flexible regions of the adaptor proteins (Figure 5A), peptides should be able to mimic their interactions with TMEM55B. Peptides corresponding to the potential TBMs were synthesized with an N-terminal hexahistidine tag to enable in vitro pulldowns of TMEM55B (80-166; Figure 5B). Slightly extended peptides beyond the minimal TBMs were generated to preclude any structural or conformational restrictions on the interaction with TMEM55B. The peptide TBM from RILPL1 was used as a positive control, and the mutant R151E™ of TMEM55B provided a negative control. Peptides run on conventional SDS-PAGE gels are generally not visible in this assay. […]
row,Sequence,pulldown of R151E variant of TMEM55B by His-tagged bait
1,"HHHHHHGSGYTEQGQEALQHL [His-tagged RILPL1 peptide, RILPL1 391-403 TBM peptide with N-terminal hexahistidine tag; direct pulldown, ITC]",abolished

# Test system: WT TMEM55B region 80-166
# Assay: In vitro pulldown of untagged TMEM55B with His-tagged bait peptides
# Type: binding
# Details: 10 μM bait, 10 μM prey, Ni2+-agarose, 20 mM Tris pH 8.0, 300 mM NaCl, 20 mM imidazole, 15 minutes; SDS-PAGE, Coomassie; qualitative
# Description: as §1
# Given that the TBMs reside in flexible regions of the adaptor proteins (Figure 5A), peptides should be able to mimic their interactions with TMEM55B. Peptides corresponding to the potential TBMs were synthesized with an N-terminal hexahistidine tag to enable in vitro pulldowns of TMEM55B (80-166; Figure 5B). Slightly extended peptides beyond the minimal TBMs were generated to preclude any structural or conformational restrictions on the interaction with TMEM55B. The peptide TBM from RILPL1 was used as a positive control, and the mutant R151E™ of TMEM55B provided a negative control. Peptides run on conventional SDS-PAGE gels are generally not visible in this assay.
# In vitro pulldowns were conducted using hexahistidine tagged peptides of interacting proteins as bait, as described in dx.doi.org/10.17504/protocols.io.dm6gpqk91lzp/v2. If not stated otherwise 10μM of bait peptide or the hexahistidine tagged PH domain of OCRL was mixed with 10μM of prey TMEM55B80-166 or TMEM55B80-160 in 1.5 mL centrifuge tubes with 25 μl Ni^2+-agarose resin in a final volume of 1ml of binding buffer (20 mM Tris pH 8.0, 300 mM NaCl, 20mM Imidazole, 10 mM β-mercapotoethanol). The reaction mixture was subjected to gentle shaking for 15 minutes. The resin was collected by gentle centrifugation (1,000 rpm) and washed 3 times with 1 ml of the binding buffer. Following release of proteins from the resin with 50μl elution buffer (20 mM Tris-Cl pH 8.0, 300 mM NaCl, 200mM imidazole), samples were subjected to SDS-PAGE and stained with Coomassie Brilliant Blue[26].
row,Sequence,pulldown of untagged WT TMEM55B (80-166) by His-tagged bait
1,"HHHHHHGSTAEEATEATEG [JIP4, His-tagged JIP4 887-897 TBM peptide used as pulldown bait]",interact with TMEM55B
2,"HHHHHHGSDDLEQATEALDS [WDR81, His-tagged WDR81 657-668 TBM peptide used as pulldown bait]",interact with TMEM55B
3,"HHHHHHSQSTEEATEATEVPD [JIP3, His-tagged JIP3 889-903 TBM peptide used as pulldown bait]",interact with TMEM55B
4,"HHHHHHGSVQEAEETLLID [OCRL, His-tagged peptide corresponding to the TBM of OCRL, residues 65-75]",failed to pulldown TMEM55B; also recorded: did not significantly interact
5,"HHHHHHGSGYTEQGQEALQHL [His-tagged RILPL1 peptide, RILPL1 391-403 TBM peptide with N-terminal hexahistidine tag; direct pulldown, ITC]",clear band
